This note sets out measurements from patent publication US20050245527A1, “Nitrogen containing heterocyclic compounds and medicines containing the same” (priority 2002, published 2005).

This test relates to sodium channels. The class given is cell-based. As to conditions: read-out: IC50 (μM), sodium channel-inhibiting activity; rat fetal cultured hippocampal neurons, SBFI fluorescence in the presence of 4-aminopyridine, 5 minutes after addition, 1 μM tetrodotoxin = 100%.
A word on the IC50: it is the concentration that inhibits the measured activity by half. In the case of `C[C@@H]1CN(Cc2ncc[nH]c2=O)CC[C@H]1C(=O)Cc1ccccc1F` (relative stereo) [Example 366, trans-3-[4-[2-(2-Fluorophenyl)acetyl]-3-methylpiperidino]methyl-1H-pyrazin-2-one], the IC50 was determined as 4.2 µM. Under `C[C@H]1C[C@H](C(=O)Cc2ccccc2F)CCN1Cc1ncc[nH]c1=O` (relative stereo) [Example 414, trans-3-[4-[2-(2-Fluorophenyl)acetyl]-2-methylpiperidino]methyl-1H-pyrazin-2-one] stands 7.9 µM; under `O=c1cncc(CCN2CCCC(COc3ccccc3F)C2)[nH]1` (centres unmarked) [Example 117, 6-[2-[3-(2-Fluorophenoxymethyl)piperidino]ethyl]-1H-pyrazin-2-one], 4.4 µM; under `O=c1cncc(CCN2CCC(O)(COc3ccccc3F)CC2)[nH]1` [Example 118, 6-[2-[4-Hydroxy-4-(2-fluorophenoxymethyl)piperidino]ethyl]-1H-pyrazin-2-one], 3.1 µM.

Regarding `O=c1cncc(CCN2CCC3(CC2)CC(Oc2ccccc2F)C3)[nH]1` [Example 119, 6-[2-[2-(2-Fluorophenoxy)-7-azaspiro[3.5]non-7-yl]ethyl]-1H-pyrazin-2-one], the IC50 came to 8.4 µM. `O=c1cncc(CCN2CCC(O)(C#Cc3ccccc3F)CC2)[nH]1` [Example 120, 6-[2-[4-Hydroxy-4-[(2-fluorophenyl)ethynyl]piperidino]ethyl]-1H-pyrazin-2-one]: the IC50 was determined as 8.5 µM. With `Cc1ccccc1OCC1(C#N)CCN(Cc2ncc[nH]c2=O)CC1` [Example 121, 1-(3-Oxo-3,4-dihydro-2-pyrazinylmethyl)-4-(2-methylphenoxymethyl)piperidine-4-carbonitrile], the IC50 was 5.7 µM. Under `Cc1ccccc1CCC1(O)CCN(Cc2ccc[nH]c2=O)CC1` [Example 125, 3-[4-Hydroxy-4-[2-(2-methylphenyl)ethyl]piperidino]methyl-1H-pyridin-2-one] stands 5 µM. Under `O=c1[nH]ccnc1CN1CCC(CC(O)c2ccccc2F)CC1` (centres unmarked) [Example 144, 3-[4-[2-(2-Fluorophenyl)-2-hydroxyethyl]piperidino]methyl-1H-pyrazin-2-one] stands 5.8 µM; under `COc1ccccc1CCC1CCCN(Cc2ncc[nH]c2=O)C1` (centres unmarked) [Example 155, 3-[3-[2-(2-Methoxyphenyl)ethyl]piperidino]methyl-1H-pyrazin-2-one], 3.5 µM.

Turning to `O=c1[nH]ccnc1CN1CCC(CCOc2ccccc2F)CC1` [Example 159, 3-[4-[2-(2-Fluorophenoxy)ethyl]piperidino]methyl-1H-pyrazin-2-one], the IC50 amounted to 9.4 µM. Turning to `COc1cccc(OCC2CCN(Cc3ncc[nH]c3=O)CC2)c1` [Example 161, 3-[4-(3-Methoxyphenoxymethyl)piperidino]methyl-1H-pyrazin-2-one], the IC50 was 3.5 µM.

In the case of `CCOc1ccccc1OCC1CCN(Cc2ncc[nH]c2=O)CC1` [Example 165, 3-[4-(2-Ethoxyphenoxymethyl)piperidino]methyl-1H-pyrazin-2-one], the IC50 was 8.4 µM.

`N#Cc1ccccc1OCC1CCN(Cc2ncc[nH]c2=O)CC1` [Example 166, 3-[4-(2-Cyanophenoxymethyl)piperidino]methyl-1H-pyrazin-2-one]: the IC50 was determined as 8.7 µM. Under `O=c1[nH]ccnc1CN1CCC(/C=C/c2sccc2F)CC1` [Example 173, (E)-3-[4-[2-(3-Fluoro-2-thienyl)vinyl]piperidino]methyl-1H-pyrazin-2-one] stands 4.3 µM; under `CC(Oc1ccccc1F)C1CCN(Cc2ncc[nH]c2=O)CC1` (centres unmarked) [Example 175, 3-[4-[1-(2-Fluorophenoxy)ethyl]piperidino]methyl-1H-pyrazin-2-one], 2.6 µM; under `Cc1ccc(-c2ccccc2)n1CC1CCN(Cc2ncc[nH]c2=O)CC1` [Example 182, 3-[4-(2-Methyl-5-phenylpyrrol-1-yl)methyl-piperidino]methyl-1H-pyrazin-2-one], 7.8 µM. On to `O=c1[nH]ccnc1CN1CCC(c2nc(-c3ccc(F)cc3)no2)CC1` [Example 189, 3-[4-[3-(4-Fluorophenyl)-1,2,4-oxadiazol-5-yl]piperidino]methyl-1H-pyrazin-2-one], for which the half-maximal inhibitory concentration (IC50) was 7.2 µM. For the compound `COC(Cc1ccccc1F)C1CCN(Cc2ncc[nH]c2=O)CC1` (centres unmarked) [Example 190, 3-[4-[2-(2-Fluorophenyl)-1-methoxyethyl]piperidino]methyl-1H-pyrazin-2-one], the half-inhibitory concentration (IC50) was 1.2 µM.

For `O=C(Cc1cccc(F)c1)C1CCN(Cc2ncc[nH]c2=O)CC1` [Example 191, 3-[4-[2-(3-Fluorophenyl)acetyl]piperidino]methyl-1H-pyrazin-2-one], the 50% inhibitory concentration (IC50) turned out to be 7.1 µM. The figure for `O=C(Cc1cc(F)ccc1F)C1CCN(Cc2ncc[nH]c2=O)CC1` [Example 194, 3-[4-[2-(2,5-Difluorophenyl)acetyl]piperidino]methyl-1H-pyrazin-2-one] is 6.6 µM; for `O=C(Cc1ccccc1)C1CCN(Cc2ncc[nH]c2=O)CC1` [Example 196, 3-[4-(2-Phenylacetyl)piperidino]methyl-1H-pyrazin-2-one] it is 6.2 µM. Regarding `O=c1[nH]ccnc1CN1CCC(COc2ccc(F)cc2)CC1` [Example 199, 3-[4-(4-Fluorophenoxymethyl)piperidino]methyl-1H-pyrazin-2-one], the IC50 worked out at 6.2 µM.

Take `O=c1[nH]ccnc1CN1CCC(C(Cc2ccccc2F)=NO)CC1` [Example 202, 3-[4-[1-Hydroxyimino-2-(2-fluorophenyl)ethyl]piperidino]methyl-1H-pyrazin-2-one]: the concentration for half-maximal inhibition (IC50) amounted to 4.9 µM. The figure for `CON=C(Cc1ccccc1F)C1CCN(Cc2ncc[nH]c2=O)CC1` [Example 203, 3-[4-[2-(2-Fluorophenyl)-1-(methoxyimino)ethyl]piperidino]methyl-1H-pyrazin-2-one] is 2.3 µM; for `O=C(Cc1ccccc1F)C1CCN(Cc2nc3ccccc3[nH]c2=O)CC1` [Example 206, 3-[4-[2-(2-Fluorophenyl)acetyl]piperidino]methyl-1H-quinoxalin-2-one] it is 5.2 µM. `O=c1[nH]ccnc1CN1CCCCC1CCOc1ccccc1F` (centres unmarked) [Example 209, 3-[2-[2-(2-Fluorophenoxy)ethyl]piperidino]methyl-1H-pyrazin-2-one]: the IC50 is 2.1 µM. The figure for `O=c1[nH]ccnc1CN1CCC(O)(COc2ccccc2F)CC1` [Example 211, 3-[4-Hydroxy-4-(2-fluorophenoxymethyl)piperidino]methyl-1H-pyrazin-2-one] is 8.2 µM. As for `O=c1[nH]ccnc1CN1CCC(c2nc(-c3ccccc3)no2)CC1` [Example 215, 3-[4-(3-Phenyl-1,2,4-oxadiazol-5-yl)piperidino]methyl-1H-pyrazin-2-one], the IC50 worked out at 4.1 µM. Under `CCOC(=O)C1(CCc2ccccc2)CCN(Cc2ncc[nH]c2=O)CC1` [Example 216, 3-[4-(Ethoxycarbonyl)-4-(2-phenylethyl)piperidino]methyl-1H-pyrazin-2-one] stands 3.2 µM; under `O=c1[nH]ccnc1CN1CCC(O)(C#Cc2ccccc2F)CC1` [Example 217, 3-[4-(2-Fluorophenyl)ethynyl-4-hydroxypiperidino]methyl-1H-pyrazin-2-one], 1.8 µM. In the case of `Cc1ccccc1C#CC1(O)CCN(Cc2ncc[nH]c2=O)CC1` [Example 218, 3-[4-(2-Methylphenyl)ethynyl-4-hydroxypiperidino]methyl-1H-pyrazin-2-one], the half-inhibitory concentration (IC50) stood at 3.6 µM. Under `O=c1[nH]ccnc1CN1CCC(CO)(CCc2ccccc2)CC1` [Example 219, 3-[4-Hydroxymethyl-4-(2-phenylethyl)piperidino]methyl-1H-pyrazin-2-one] stands 1.6 µM; under `N#CC1(COc2ccccc2F)CCN(Cc2ncc[nH]c2=O)CC1` [Example 221, 3-[4-Cyano-4-(2-fluorophenoxymethyl)piperidino]methyl-1H-pyrazin-2-one], 4.9 µM; under `O=c1[nH]ccnc1CN1CCC2(CC1)CC(Oc1ccccc1F)C2` [Example 226, 3-[2-(2-Fluorophenoxy)-7-azaspiro[3.5]non-7-yl]methyl-1H-pyrazin-2-one], 4.5 µM. Regarding `O=c1cncc(CCN2CCC(COc3cccc(F)c3)CC2)[nH]1` [Example 238, 6-[2-[4-(3-Fluorophenoxymethyl)piperidino]ethyl]-1H-pyrazin-2-one], the half-maximal inhibitory concentration (IC50) is 5.6 µM. Under `COc1ccccc1OCC1CCN(CCc2cncc(=O)[nH]2)CC1` [Example 240, 6-[2-[4-(2-Methoxyphenoxymethyl)piperidino]ethyl]-1H-pyrazin-2-one] stands 6.4 µM; under `O=c1cncc(CCN2CCC(COc3cccc(F)c3F)CC2)[nH]1` [Example 242, 6-[2-[4-(2,3-Difluorophenoxymethyl)piperidino]ethyl]-1H-pyrazin-2-one], 6.2 µM.

For `O=c1cncc(CCN2CCC(C#Cc3ccccc3F)CC2)[nH]1` [Example 244, 6-[2-[4-[(2-Fluorophenyl)ethynyl]piperidino]ethyl]-1H-pyrazin-2-one], the IC50 came out at 3.1 µM. On to `O=c1cncc(CCN2CCC(COc3ccccc3)CC2)[nH]1` [Example 245, 6-[2-[4-(Phenoxymethyl)piperidino]ethyl]-1H-pyrazin-2-one], for which the IC50 was 4.4 µM. Regarding `Cn1c(CCN2CCC(COc3ccccc3F)CC2)cncc1=O` [Example 249, 6-[2-[4-(2-Fluorophenoxymethyl)piperidino]ethyl]-1-methyl-1H-pyrazin-2-one], the IC50 is 3.2 µM. On to `CCOC(=O)C1(CCc2ccccc2)CCN(Cc2ccc[nH]c2=O)CC1` [Example 255, 3-[4-(Ethoxycarbonyl)-4-(2-phenylethyl)piperidino]methyl-1H-pyridin-2-one], for which the concentration for half-maximal inhibition (IC50) is 3.1 µM.

Turning to `O=c1[nH]ccnc1CN1CCC(CSc2ccccc2F)CC1` [Example 336, 3-[4-[(2-Fluorophenylthio)methyl]piperidino]methyl-1H-pyrazin-2-one], the IC50 was 4.7 µM. `O=c1[nH]ccnc1CN1CCC(C[S+]([O-])c2ccccc2F)CC1` (centres unmarked) [Example 337, 3-[4-[(2-Fluorophenylsulfinyl)methyl]piperidino]methyl-1H-pyrazin-2-one]: the IC50 stood at 6.5 µM.
